From US9771370B2, “Compounds for the inhibition of indoleamine-2,3-dioxygenase” (Merck Patent GmbH, priority 2014, dated 2017)

Molecular target: Recombinant human IDO (Homo sapiens, UniProt P14902)
Assay: Bridge-IT tryptophan fluorescence assay of human IDO-1 inhibition
Type: biochemical
Conditions: recombinant human IDO 7.5 nM, L-tryptophan
In short: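 Two protocol variants: 100 μM L-Trp for 90 min at 37 °C, or 30 min enzyme–compound pre-incubation at 25 °C, then 50 μM L-Trp for 60 min at 25 °C. Reaction stopped in Bridge-IT solution A for 30 min at 30 °C.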

Sequence of Recombinant human IDO (P14902 whole entry): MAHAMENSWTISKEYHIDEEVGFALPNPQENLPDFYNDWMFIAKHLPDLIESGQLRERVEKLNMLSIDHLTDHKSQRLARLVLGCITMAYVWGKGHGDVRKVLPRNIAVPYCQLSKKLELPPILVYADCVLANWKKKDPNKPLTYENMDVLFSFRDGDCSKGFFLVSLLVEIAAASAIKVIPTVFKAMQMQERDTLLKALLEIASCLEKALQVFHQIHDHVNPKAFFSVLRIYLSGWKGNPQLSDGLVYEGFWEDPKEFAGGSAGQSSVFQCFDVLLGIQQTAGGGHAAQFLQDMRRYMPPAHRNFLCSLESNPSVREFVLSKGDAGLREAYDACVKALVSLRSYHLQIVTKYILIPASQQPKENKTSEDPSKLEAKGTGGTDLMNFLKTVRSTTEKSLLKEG

| SMILES | IC50 [µM] |
| --- | --- |
| FC1(CCC2c3ccccc3-c3cncn32)CCCCC1 (single isomer, unassigned) [Compound 1b, 5-(2-(1-fluorocyclohexyl)ethyl)-5H-imidazo[5,1-a]isoindole] | 0.1 to 1 |
| CC1(C)CCC(CCC2c3ncccc3-c3cncn32)CC1 (centres unmarked) [Compound 51, 7-[2-(4,4-dimethylcyclohexyl)ethyl]-4,6,9-triazatricyclo[6.4.0.0^[2,6]]dodeca-1(8),2,4,9,11-pentaene] | > 1 |
| CC(C)(C)C(=O)N1CCC(C(O)CC2c3ncccc3-c3cncn32)CC1 (single isomer, unassigned) [Compound 88a, 1-[4-[1-hydroxy-2-[4,6,9-triazatricyclo[6.4.0.0^[2,6]]dodeca-1(8),2,4,9,11-pentaen-7-yl]ethyl]piperidin-1-yl]-2,2-dimethylpropan-1-one] | > 1 |
| FC1(CCC2c3cnccc3-c3cncn32)CCCCC1 (single isomer, unassigned) [Compound 10b, 7-[2-(1-fluorocyclohexyl)ethyl]-4,6,10-triazatricyclo[6.4.0.0^[2,6]]dodeca-1(8),2,4,9,11-pentaene] | > 1 |
| OC1CCC(F)(CCC2c3c(Cl)cccc3-c3cncn32)CC1 (single isomer, unassigned) [Compound 71b, 4-[2-[6-chloro-5H-imidazo[4,3-a]isoindol-5-yl]ethyl]-4-fluorocyclohexan-1-ol] | 0.1 to 1 |
| NS(=O)(=O)C1CCC(F)(CCC2c3ccccc3-c3cncn32)CC1 (single isomer, unassigned) [Compound 121c, 4-fluoro-4-[2-[5H-imidazo[4,3-a]isoindol-5-yl]ethyl]cyclohexane-1-sulfonamide] | > 1 |
| FC1(CCC2c3ncccc3-c3cncn32)CCOCC1 (single isomer, unassigned) [Compound 93b, 7-[2-(4-fluorooxan-4-yl)ethyl]-4,6,9-triazatricyclo[6.4.0.0^[2,6]]dodeca-1(8),2,4,9,11-pentaene] | > 1 |
| OC1CCC(F)(CCC2c3ncccc3-c3cncn32)CC1 (single isomer, unassigned) [Compound 8b, 4-fluoro-4-(2-{4,6,9-triazatricyclo[6.4.0.0^[2,6]]dodeca-1(8),2,4,9,11-pentaen-7-yl}ethyl)cyclohexan-1-ol] | > 1 |
| CC(C)(C)C(=O)N1CCC(C(O)CC2c3ncccc3-c3cncn32)CC1 (single isomer, unassigned) [Compound 88d, 1-[4-[1-hydroxy-2-[4,6,9-triazatricyclo[6.4.0.0^[2,6]]dodeca-1(8),2,4,9,11-pentaen-7-yl]ethyl]piperidin-1-yl]-2,2-dimethylpropan-1-one] | > 1 |
| FC1(CCC2c3ccccc3-c3cncn32)CCOCC1 (single isomer, unassigned) [Compound 94a, 5-[2-(4-fluorooxan-4-yl)ethyl]-5H-imidazo[4,3-a]isoindole] | > 1 |
| OC(CC1c2c(Cl)cccc2-c2cncn21)C1(F)CCCCC1 (single isomer, unassigned) [Compound 83d, 2-[6-chloro-5H-imidazo[4,3-a]isoindol-5-yl]-1-(1-fluorocyclohexyl)ethan-1-ol] | < 0.1 |
| NS(=O)(=O)C1CCC(F)(CCC2c3ccccc3-c3cncn32)CC1 (single isomer, unassigned) [Compound 121b, 4-fluoro-4-[2-[5H-imidazo[4,3-a]isoindol-5-yl]ethyl]cyclohexane-1-sulfonamide] | > 1 |
| NC(=O)C1CCC(F)(CCC2c3c(F)cccc3-c3cncn32)CC1 (single isomer, unassigned) [Compound 81d, 4-fluoro-4-[2-[6-fluoro-5H-imidazo[4,3-a]isoindol-5-yl]ethyl]cyclohexane-1-carboxamide] | < 0.1 |
| FC1(CCC2c3ccccc3-c3cncn32)CCCCC1 (single isomer, unassigned) [Compound 1a, 5-(2-(1-fluorocyclohexyl)ethyl)-5H-imidazo[5,1-a]isoindole] | > 1 |
| NC(=O)C1CCC(F)(CCC2c3c(Cl)cccc3-c3cncn32)CC1 (single isomer, unassigned) [Compound 99a, 4-[2-[6-chloro-5H-imidazo[4,3-a]isoindol-5-yl]ethyl]-4-fluorocyclohexane-1-carboxamide] | > 1 |
| OC(CC1c2ncccc2-c2cncn21)C1CCC(F)(F)CC1 (single isomer, unassigned) [Compound 22a, 1-(4,4-difluorocyclohexyl)-2-[4,6,9-triazatricyclo[6.4.0.0^[2,6]]dodeca-1(8),2,4,9,11-pentaen-7-yl]ethan-1-ol] | 0.1 to 1 |

Next, values leading:

| IC50 [µM] | SMILES |
| --- | --- |
| < 0.1 | OC(CC1c2cc(F)ncc2-c2cncn21)C1CCCCC1 (single isomer, unassigned) [Compound 24d, 1-cyclohexyl-2-[10-fluoro-4,6,11-triazatricyclo[6.4.0.0^[2,6]]dodeca-1(8),2,4,9,11-pentaen-7-yl]ethan-1-ol] |
| > 1 | OC(CC1CCCCC1)CC1c2ncccc2-c2cncn21 (single isomer, unassigned) [Compound 62c, 1-cyclohexyl-3-[4,6,9-triazatricyclo[6.4.0.0^[2,6]]dodeca-1(8),2,4,9,11-pentaen-7-yl]propan-2-ol] |
| 0.1 to 1 | COc1ccc2c(n1)C(CC(O)C1CCC(F)(F)CC1)n1cncc1-2 (centres unmarked) [Compound 33a, 1-(4,4-difluorocyclohexyl)-2-[10-methoxy-4,6,9-triazatricyclo[6.4.0.0^[2,6]]dodeca-1(8),2,4,9,11-pentaen-7-yl]ethan-1-ol] |
| > 1 | COc1ccc(F)c2c1-c1cncn1C2CCC1(F)CCCCC1 (single isomer, unassigned) [Compound 45a, 6-fluoro-5-(2-(1-fluorocyclohexyl)ethyl)-9-methoxy-5H-imidazo[5,1-a]isoindole] |
| > 1 | OCC1CCC(C(O)CC2c3ncccc3-c3cncn32)CC1 (centres unmarked) [Compound 73a, 1-[4-(hydroxymethyl)cyclohexyl]-2-[4,6,9-triazatricyclo[6.4.0.0^[2,6]]dodeca-1(8),2,4,9,11-pentaen-7-yl]ethan-1-ol] |
| > 1 | OC(CC1c2cc(F)ncc2-c2cncn21)C1CCCCC1 (single isomer, unassigned) [Compound 24a, 1-cyclohexyl-2-[10-fluoro-4,6,11-triazatricyclo[6.4.0.0^[2,6]]dodeca-1(8),2,4,9,11-pentaen-7-yl]ethan-1-ol] |
| > 1 | COc1cc2c(cn1)-c1cncn1C2CCC1(F)CCCCC1 (single isomer, unassigned) [Compound 15b, 7-[2-(1-fluorocyclohexyl)ethyl]-10-methoxy-4,6,11-triazatricyclo[6.4.0.0^[2,6]]dodeca-1(8),2,4,9,11-pentaene] |
| < 0.1 | COc1ccc2c(n1)C(CC(O)C1CCC3(CC1)CC3)n1cncc1-2 (single isomer, unassigned) [Compound 53b, 2-[10-methoxy-4,6,9-triazatricyclo[6.4.0.0^[2,6]]dodeca-1(8),2,4,9,11-pentaen-7-yl]-1-[spiro[2.5]octan-6-yl]ethan-1-ol] |
| > 1 | OC(CC1c2nc(Cl)ccc2-c2cncn21)C1CCCCC1 (single isomer, unassigned) [Compound 55b, 2-[10-chloro-4,6,9-triazatricyclo[6.4.0.0^[2,6]]dodeca-1(8),2,4,9,11-pentaen-7-yl]-1-cyclohexylethan-1-ol] |
| > 1 | OC(CC1c2ncccc2-c2cncn21)C1CCC2(CC1)CC2 (single isomer, unassigned) [Compound 29b, 1-[spiro[2.5]octan-6-yl]-2-[4,6,9-triazatricyclo[6.4.0.0^[2,6]]dodeca-1(8),2,4,9,11-pentaen-7-yl]ethan-1-ol] |
| 0.1 to 1 | FC1(CCC2c3ncccc3-c3cncn32)CCCCC1 (single isomer, unassigned) [Compound 18a, 7-[2-(1-fluorocyclohexyl)ethyl]-4,6,9-triazatricyclo[6.4.0.0^[2,6]]dodeca-1(8),2,4,9,11-pentaene] |
| > 1 | COc1ccc2c(n1)C(CC(N)C1CCCCC1)n1cncc1-2 (mixture of isomers) [Compound 118a, 1-cyclohexyl-2-[10-methoxy-4,6,9-triazatricyclo[6.4.0.0^[2,6]]dodeca-1(8),2,4,9,11-pentaen-7-yl]ethan-1-amine] |
| 0.1 to 1 | Fc1ccc2c(n1)C(CCC1(F)CCCCC1)n1cncc1-2 (centres unmarked) [Compound 17, 10-fluoro-7-[2-(1-fluorocyclohexyl)ethyl]-4,6,9-triazatricyclo[6.4.0.0^[2,6]]dodeca-1(8),2,4,9,11-pentaene] |
| 0.1 to 1 | OC(CC1c2ncccc2-c2cncn21)C1CCCCC1 (single isomer, unassigned) [Compound 5a, 1-cyclohexyl-2-[4,6,9-triazatricyclo[6.4.0.0^[2,6]]dodeca-1(8),2,4,9,11-pentaen-7-yl]ethan-1-ol] |
| < 0.1 | COc1ccc2c(n1)C(CCC1(F)CCC3(CC1)CC3)n1cncc1-2 (single isomer, unassigned) [Compound 54a, 7-(2-{6-fluorospiro[2.5]octan-6-yl}ethyl)-10-methoxy-4,6,9-triazatricyclo[6.4.0.0^[2,6]]dodeca-1(8),2,4,9,11-pentaene] |
| > 1 | OC(CC1c2nccc(F)c2-c2cncn21)C1CCCCC1 (single isomer, unassigned) [Compound 101b, 1-cyclohexyl-2-[12-fluoro-4,6,9-triazatricyclo[6.4.0.0^[2,6]]dodeca-1(8),2,4,9,11-pentaen-7-yl]ethan-1-ol] |
| 0.1 to 1 | OC(CC1c2nc(F)ccc2-c2cncn21)C1CCCCC1 (centres unmarked) [Compound 31a, 1-cyclohexyl-2-[10-fluoro-4,6,9-triazatricyclo[6.4.0.0^[2,6]]dodeca-1(8),2,4,9,11-pentaen-7-yl]ethan-1-ol] |
| > 1 | OC(CC1c2c(ccnc2F)-c2cncn21)C1CCCCC1 (centres unmarked) [Compound 2a, 1-Cyclohexyl-2-[9-fluoro-4,6,10-triazatricyclo[6.4.0.0^[2,6]]dodeca-1(8),2,4,9,11-pentaen-7-yl]ethan-1-ol] |
| > 1 | OC(CC1c2ncccc2-c2cncn21)C1CCC(F)(F)CC1 (single isomer, unassigned) [Compound 22d, 1-(4,4-difluorocyclohexyl)-2-[4,6,9-triazatricyclo[6.4.0.0^[2,6]]dodeca-1(8),2,4,9,11-pentaen-7-yl]ethan-1-ol] |
